Earlier results on one molecule are cited in patent publication US20080318919A1, “Cefquinome Compositions and Methods of Their Use” (Intervet International B.V., priority 2005, published 2008).

This data set relates to Mannheimia haemolytica. To be noted: concentration that inhibits the growth of 90% of the target pathogen.

As for `CO/N=C(\C(=O)N[C@@H]1C(=O)N2C(C(=O)[O-])=C(C[n+]3cccc4c3CCCC4)CS[C@H]12)c1csc(N)n1` [cefquinome, Cefquinome], the MIC90 result was “about 0.25 μg/ml”.
